IC50 data for 40 compounds are collected here from patent publication US10888567B2, “Inhibitors of tryptophan dioxygenases (IDO1 and TDO) and their use in therapy” (AUCKLAND UNISERVICES LIMITED, priority 2014, dated 2021).

The IC50 is the midpoint of a concentration-inhibition curve.

Assay [1] has as its target Recombinant human IDO1 (rhIDO1) (Homo sapiens (Human), UniProt P14902). Kind of assay: Enzymatic assay for IDO1 activity. Type of assay: biochemical. The conditions noted are these: rhIDO1 9 nM, 80 μM TRP, 37° C. 30 min. Here is the method: Recombinant human IDO1 (rhIDO1) was expressed and purified from cultures of EC538 strain of E. coli transformed with pREP4 and pQE9-IDO plasmid. Reaction mixes were set up in 384-well microplates containing 50 mM phosphate buffer, 10 mM ascorbic, 10 μM methylene blue, 100 μg/mL catalase, 80 μM TRP, 0.01% Tween 20 (v/v) mixed with rhIDO1 (15 μL) at a final concentration of 9 nM in a total volume of 30 μL assay medium. The plates were incubated at 37° C. for 30 min, and the enzymatic reaction was terminated by adding piperidine (200 mM) and heated at 65° C. for 20 min. Fluorescence intensity was read at λex 400 nm and λem 500 nm. Test compounds were dissolved in 100% DMSO and pre-diluted in assay medium prior to adding rhIDO1. IDO1 inhibition (%) was calculated as
[formula] All experiments were carried out in triplicates, and statistical Analyses were conducted in Prism v5 (Graphpad Software, Inc., La Jolla, Calif., USA). Cell-Based Assay for IDO1 Inhibition

Assay [2] addresses human IDO1 (LLTC-hIDO1 cells) (Homo sapiens, UniProt P14902). Kind of assay: Cell-based assay for IDO1 inhibition (kynurenine in supernatant). The note with it: IDO1-transfected Lewis Lung carcinoma cells, 24 h; read-out: Cellular IC50. Here is the method: Culture supernatant from each well was then transferred into a fresh, flat-bottomed 96-well plate, mixed with trichloroacetic acid (10% final concentration) and incubated for 20 min at 60° C. […] The absorbance of each well was read at 480 nm, and the concentration that inhibited 50% cellular enzyme activity was calculated.

Assay [3] deals with Lewis Lung carcinoma cells transfected to express IDO1 (LLTC-hIDO1). Briefly: MTT cell viability in the cellular IDO1 assay. In kind it is cell-based. The conditions noted are these: same experiment as cellular IDO1 assay. Here is the method: The viability of the cells in each well in the same experiment was determined using the 3-(4,5-dimethylthiazolyl-2-yl)-2,5-diphenyltetrazolium bromide (MTT) colourimetric assay. After the removal of the supernatant for determination of IDO1 inhibition, the cells were incubated with MTT (500 μg/mL) until crystal formation was observed. […] DMSO (100 μL/well) was added to dissolve the crystals and then the absorbance in each well was measured at 570 nm. Cell viability in each well was expressed as a percentage of untreated controls. Triplicate cultures were used for all experiments unless stated otherwise.

Sequence of Recombinant human IDO1 (rhIDO1) (P14902 whole entry): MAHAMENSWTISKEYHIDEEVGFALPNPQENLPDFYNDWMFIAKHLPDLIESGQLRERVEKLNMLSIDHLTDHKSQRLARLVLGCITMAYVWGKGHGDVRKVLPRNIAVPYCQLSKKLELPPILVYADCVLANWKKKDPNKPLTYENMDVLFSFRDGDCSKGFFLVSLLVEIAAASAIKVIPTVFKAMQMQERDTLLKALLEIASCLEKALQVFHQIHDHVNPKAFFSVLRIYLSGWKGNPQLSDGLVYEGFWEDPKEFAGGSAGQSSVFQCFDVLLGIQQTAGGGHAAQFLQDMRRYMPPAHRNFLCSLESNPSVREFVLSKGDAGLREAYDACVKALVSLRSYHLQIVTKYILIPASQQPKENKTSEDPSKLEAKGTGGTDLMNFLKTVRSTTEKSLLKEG

Turning to `Nc1noc2nc(Oc3cccc(Cl)c3)ccc12` [Compound 85, 6-(3-Chlorophenoxy)isoxazolo[5,4-b]pyridin-3-amine], the half-inhibitory concentration (IC50) in assay [1] is > 100 µM.

As for `Nc1noc2nc(Oc3ccc(Cl)cc3)ccc12` [Compound 86, 6-(4-Chlorophenoxy)isoxazolo[5,4-b]pyridin-3-amine], the half-maximal inhibitory concentration (IC50) in assay [1] was > 100 µM.

Consider `Nc1noc2nc(Oc3ccccc3)ccc12` [Compound 83, 6-Phenoxyisoxazolo[5,4-b]pyridin-3-amine], for which, in assay [1], the IC50 was > 100 µM.

Consider `Cc1cc(C)c2c(N)noc2n1` [Compound 4, 4,6-Dimethylisoxazolo[5,4-b]pyridin-3-amine], for which the values for the half-maximal inhibitory concentration (IC50) in assay [2], in assay [3] and in assay [1] were 1 to 10 µM, > 100 µM and 10 to 100 µM, respectively.

In the case of `Nc1noc2nc3c(cc12)COCC3` [Compound 62, 7,8-Dihydro-5H-isoxazolo[5,4-b]pyrano[3,4-e]pyridin-3-amine], the IC50 in assay [1] is > 100 µM.

As to `COC(=O)c1ccc2c(N)noc2n1` [Compound 82, Methyl 3-aminoisoxazolo[5,4-b]pyridine-6-carboxylate], the IC50 is 10 to 100 µM in assay [2], > 100 µM in assay [3] and > 100 µM in assay [1].

For the compound `Nc1noc2ncc(-c3ccccc3O)cc12` [Compound 28, 2-(3-Aminoisoxazolo[5,4-b]pyridin-5-yl)phenol], the half-maximal inhibitory concentration (IC50) in assay [1] is > 100 µM.

Consider `CC(C)c1ccc2c(N)noc2n1` [Compound 48, 6-Isopropylisoxazolo[5,4-b]pyridin-3-amine], for which the values for the half-maximal inhibitory concentration (IC50) in assay [2], in assay [3] and in assay [1] were 10 to 100 µM, > 100 µM and > 100 µM, respectively.

Consider `CSc1ccc2c(N)noc2n1` [Compound 79, 6-(Methylthio)isoxazolo[5,4-b]pyridin-3-amine], for which the IC50 in assay [2] was 1 to 10 µM; in assay [3] it was > 100 µM; in assay [1], 10 to 100 µM.

Take `Nc1noc2nc(-c3ccccc3)ccc12` [Compound 15, 6-Phenylisoxazolo[5,4-b]pyridin-3-amine]: the IC50 in assay [2] was 1 to 10 µM; in assay [3], > 100 µM; in assay [1] it was > 100 µM.

Take `Nc1noc2nc(NC3CC3)c(F)cc12` [Compound 56, N6-Cyclopropyl-5-fluoroisoxazolo[5,4-b]pyridine-3,6-diamine]: the IC50 in assay [2], in assay [3] and in assay [1] was > 100 µM in each case.

Consider `COc1ccc(Nc2ccc3c(N)noc3n2)cc1` [Compound 96, N^6-(4-Methoxyphenyl)isoxazolo[5,4-b]pyridine-3,6-diamine], for which the IC50 in assay [2], in assay [3] and in assay [1] was > 100 µM in each case.

In the case of `Nc1noc2ncc(Br)cc12` [Compound 6, 5-Bromoisoxazolo[5,4-b]pyridin-3-amine], the half-maximal inhibitory concentration (IC50) in assay [2] was < 1 µM; in assay [3], > 100 µM; in assay [1] it was 10 to 100 µM.

As for `Nc1noc2nccc(-c3ccccc3)c12` [Compound 13, 4-Phenylisoxazolo[5,4-b]pyridin-3-amine], the IC50 in assay [2], in assay [3] and in assay [1] was > 100 µM each time.

`Nc1ccc2c(N)noc2n1` [Compound 43, Isoxazolo[5,4-b]pyridine-3,6-diamine]: in assay [1], the IC50 was > 100 µM.

As to `Cc1nc2onc(N)c2c(C)c1Br` [Compound 1, 5-Bromo-4,6-dimethylisoxazolo[5,4-b]pyridin-3-amine], the IC50 was < 1 µM in assay [2], > 100 µM in assay [3] and 1 to 10 µM in assay [1].

In the case of `Cc1nc2onc(N)c2c(C)c1OC(F)F` [Compound 52, 5-(Difluoromethoxy)-4,6-dimethylisoxazolo[5,4-b]pyridin-3-amine], the IC50 in assay [2] is 10 to 100 µM; in assay [3] it was > 100 µM; in assay [1] it was > 100 µM.

In the case of `CN(C)CCOc1ccc2c(N)noc2n1` [Compound 77, 6-(2-(Dimethylamino)ethoxy)isoxazolo[5,4-b]pyridin-3-amine], the IC50 in assay [2], in assay [3] and in assay [1] was > 100 µM in each case.

In the case of `CCOC(=O)c1cc2c(N)noc2nc1C(F)F` [Compound 54, Ethyl 3-amino-6-(difluoromethyl)isoxazolo[5,4-b]pyridine-5-carboxylate], the IC50 in assay [2] was 10 to 100 µM; in assay [3] it was > 100 µM; in assay [1], > 100 µM.

As to `Nc1noc2ncc(I)cc12` [Compound 16, 5-Iodoisoxazolo[5,4-b]pyridin-3-amine], the results for the IC50 in assay [2], in assay [3] and in assay [1] were < 1 µM, > 100 µM and 1 to 10 µM, respectively.

As for `Nc1noc2nc(Oc3ccccc3OC(F)(F)F)ccc12` [Compound 87, 6-(2-(Trifluoromethoxy)phenoxy)isoxazolo[5,4-b]pyridin-3-amine], the figures for the IC50 in assay [2], in assay [3] and in assay [1] were 10 to 100 µM, > 100 µM and > 100 µM, respectively.

In the case of `CCOC(=O)c1cc2c(N)noc2nc1C` [Compound 53, Ethyl 3-amino-6-methylisoxazolo[5,4-b]pyridine-5-carboxylate], the IC50 in assay [1] was > 100 µM.

For the compound `Nc1noc2nc(Cl)cc(C(F)(F)F)c12` [Compound 68, 6-Chloro-4-(trifluoromethyl)isoxazolo[5,4-b]pyridin-3-amine], the results for the 50% inhibitory concentration (IC50) in assay [2], in assay [3] and in assay [1] were 10 to 100 µM, > 100 µM and > 100 µM, respectively.

`Nc1noc2ccncc12` [Compound 17, Isoxazolo[4,5-c]pyridin-3-amine]: the IC50 in assay [1] was > 100 µM.

Turning to `Nc1noc2nc(N3CCOCC3)c(F)cc12` [Compound 55, 5-Fluoro-6-morpholinoisoxazolo[5,4-b]pyridin-3-amine], the half-maximal inhibitory concentration (IC50) in assay [1] is > 100 µM.

On to `COc1cccc(Oc2ccc3c(N)noc3n2)c1` [Compound 91, 6-(3-Methoxyphenoxy)isoxazolo[5,4-b]pyridin-3-amine], for which, in assay [1], the IC50 was > 100 µM.

In the case of `CCOC(=O)c1cc2c(N)noc2nc1C(F)(F)F` [Compound 50, Ethyl 3-amino-6-(trifluoromethyl)isoxazolo[5,4-b]pyridine-5-carboxylate], the IC50 is 10 to 100 µM in assay [2], > 100 µM in assay [3] and 10 to 100 µM in assay [1].

On to `Nc1noc2nc3c(cc12)CCC3` [Compound 59, 6,7-Dihydro-5H-cyclopenta[b]isoxazolo[4,5-e]pyridin-3-amine], for which the concentration for half-maximal inhibition (IC50) in assay [2], in assay [3] and in assay [1] was > 100 µM throughout.

On to `Nc1noc2nc(Oc3cccc(OC(F)(F)F)c3)ccc12` [Compound 88, 6-(3-(Trifluoromethoxy)phenoxy)isoxazolo[5,4-b]pyridin-3-amine], for which the values for the half-inhibitory concentration (IC50) in assay [2], in assay [3] and in assay [1] were 10 to 100 µM, > 100 µM and > 100 µM, respectively.

For `Nc1noc2nc(Oc3ccccc3Cl)ccc12` [Compound 84, 6-(2-Chlorophenoxy)isoxazolo[5,4-b]pyridin-3-amine], the values for the IC50 in assay [2], in assay [3] and in assay [1] were 10 to 100 µM, > 100 µM and 10 to 100 µM, respectively.

As to `COc1ccc(Oc2ccc3c(N)noc3n2)cc1` [Compound 92, 6-(4-Methoxyphenoxy)isoxazolo[5,4-b]pyridin-3-amine], the IC50 in assay [1] is > 100 µM.

In the case of `Nc1noc2nc3c(cc12)CCCCC3` [Compound 60, 6,7,8,9-Tetrahydro-5H-cyclohepta[b]isoxazolo[4,5-e]pyridin-3-amine], the IC50 in assay [1] is > 100 µM.

`CN(C)c1ccc2c(N)noc2n1` [Compound 18, N^6,N^6-Dimethylisoxazolo[5,4-b]pyridine-3,6-diamine]: in assay [1], the IC50 is > 100 µM.

Take `CC1(C)CCc2nc3onc(N)c3cc2C1` [Compound 61, 6,6-Dimethyl-5,6,7,8-tetrahydroisoxazolo[5,4-b]quinolin-3-amine]: the IC50 in assay [1] was > 100 µM.

Regarding `Nc1noc2ncc(F)cc12` [Compound 14, 5-Fluoroisoxazolo[5,4-b]pyridin-3-amine], the IC50 in assay [1] was > 100 µM.

On to `Nc1noc2ncc(-c3ccc(F)cc3)cc12` [Compound 30, 5-(4-Fluorophenyl)isoxazolo[5,4-b]pyridin-3-amine], for which, in assay [1], the IC50 was > 100 µM.

For `CN(C)c1ccnc2onc(N)c12` [Compound 19, N^4,N^4-Dimethylisoxazolo[5,4-b]pyridine-3,4-diamine], the 50% inhibitory concentration (IC50) in assay [1] was > 100 µM.

For the compound `Cc1ccc2c(N)noc2n1` [Compound 7, 6-Methylisoxazolo[5,4-b]pyridin-3-amine], in assay [1], the half-inhibitory concentration (IC50) is > 100 µM.

As for `Cc1nc2onc(N)c2c(C)c1C` [Compound 5, 4,5,6-Trimethylisoxazolo[5,4-b]pyridin-3-amine], in assay [1], the half-maximal inhibitory concentration (IC50) lay in the range of 10 to 100 µM.

As for `COc1ccnc2onc(N)c12` [Compound 51, 4-Methoxyisoxazolo[5,4-b]pyridin-3-amine], the IC50 in assay [1] is > 100 µM.
